In one assay the target is CYP2D6 (Homo sapiens, UniProt P10635). Put plainly: CYP2D6 inhibition (fluorescent substrate AMMC). It is filed as in vitro ADME. As to conditions: read-out: Cyp IC50 2D6. The procedure, abridged:
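10-pt 1:1 dilution series (from 100 mM DMSO stock) in NADPH regen cofactor mix, 5% MeCN; 10 min preincubation at 37 °C. Enzyme reaction 37 °C: 1A2 15 min, 2C9 45 min, 2C19/2D6 30 min. Fluorescence readout; IC50 fit.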

The target in another assay is TrkA kinase (Homo sapiens, UniProt P04629). The assay can be described thus: TrkA kinase biochemical activity assay (AlphaScreen). As to conditions: 100 μM ATP; read-out: Biochemical Inhibition IC50 TrkA. The procedure, abridged:
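IC50 values come from AlphaScreen PY20/streptavidin bead signal versus compound concentration. Kinase reaction: 1 ng/well TrkA, 100 μM ATP, 30 nM biotin-(E4Y)10 substrate, Mn2+-containing Hepes buffer pH 7.5, 5% DMSO, 40 min, room temperature; TrkC assayed by the same approach.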

The record followed here is US8901118B2, “Compounds and methods for kinase modulation, and indications therefor” (Plexxikon Inc., priority 2010, dated 2014).

The structures appear in SMILES notation. pIC50: −log10 of the molar value.

Sequence of TrkA kinase (P04629 33-796): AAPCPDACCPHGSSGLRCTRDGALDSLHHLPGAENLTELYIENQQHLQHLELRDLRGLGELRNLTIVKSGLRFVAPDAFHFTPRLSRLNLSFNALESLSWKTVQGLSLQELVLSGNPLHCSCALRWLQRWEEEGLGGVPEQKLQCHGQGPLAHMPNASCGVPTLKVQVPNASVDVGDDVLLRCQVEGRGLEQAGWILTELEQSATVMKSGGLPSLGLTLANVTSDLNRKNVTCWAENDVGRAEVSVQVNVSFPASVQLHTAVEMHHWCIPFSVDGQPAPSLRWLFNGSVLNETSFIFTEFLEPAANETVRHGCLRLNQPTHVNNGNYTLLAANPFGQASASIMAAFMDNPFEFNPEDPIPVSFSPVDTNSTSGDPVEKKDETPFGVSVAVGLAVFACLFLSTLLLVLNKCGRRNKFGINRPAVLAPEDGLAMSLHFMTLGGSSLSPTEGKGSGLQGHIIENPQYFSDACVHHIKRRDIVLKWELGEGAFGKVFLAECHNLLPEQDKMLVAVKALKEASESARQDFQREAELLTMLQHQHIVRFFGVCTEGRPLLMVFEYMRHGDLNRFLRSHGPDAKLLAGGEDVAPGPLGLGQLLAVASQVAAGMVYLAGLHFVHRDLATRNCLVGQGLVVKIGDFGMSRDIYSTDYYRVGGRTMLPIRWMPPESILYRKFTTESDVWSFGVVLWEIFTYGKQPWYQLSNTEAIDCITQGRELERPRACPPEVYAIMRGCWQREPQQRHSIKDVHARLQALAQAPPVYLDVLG
Sequence of CYP2D6 (P10635 whole entry): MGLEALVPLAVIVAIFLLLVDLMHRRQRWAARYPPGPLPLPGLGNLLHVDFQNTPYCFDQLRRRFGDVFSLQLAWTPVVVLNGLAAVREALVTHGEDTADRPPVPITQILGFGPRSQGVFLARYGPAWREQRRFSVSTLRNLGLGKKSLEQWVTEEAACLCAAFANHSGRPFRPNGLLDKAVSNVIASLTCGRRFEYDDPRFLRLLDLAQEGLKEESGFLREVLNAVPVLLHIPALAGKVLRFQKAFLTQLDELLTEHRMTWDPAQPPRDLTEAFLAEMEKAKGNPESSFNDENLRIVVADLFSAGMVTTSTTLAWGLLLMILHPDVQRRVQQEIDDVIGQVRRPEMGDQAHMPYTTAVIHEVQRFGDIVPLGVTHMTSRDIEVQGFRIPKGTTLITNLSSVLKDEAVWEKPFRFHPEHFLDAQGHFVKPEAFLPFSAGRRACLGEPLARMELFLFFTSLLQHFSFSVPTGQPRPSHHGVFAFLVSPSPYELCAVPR

The pIC50 is the IC50 on a negative log10 scale, so that one unit is a factor of ten. `Clc1cnc2[nH]cc(Cc3cnc(NC4CCCCC4)nc3)c2c1` [Compound P-3001, [5-(5-chloro-1H-pyrrolo[2,3-b]pyridin-3-ylmethyl)-pyrimidin-2-yl]-cyclohexyl-amine]: the pIC50 at CYP2D6 was less than 5.00.
In the case of `FC1(F)CCC(Nc2ncc(Cc3c[nH]c4ncc(Cl)cc34)cn2)CC1` [Compound P-3004], the negative-log IC50 (pIC50) on CYP2D6 was less than 5.00.
On the same count and under the same terms, under `Clc1cnc2[nH]cc(Cc3cnc(NC4CCCCCC4)nc3)c2c1` [Compound P-3006, [5-(5-Chloro-1H-pyrrolo[2,3-b]pyridin-3-ylmethyl)-pyrimidin-2-yl]-cycloheptyl-amine] stands less than 5.00.
With `Cc1cnc2[nH]cc(Cc3cnc(Nc4ccc(C(F)(F)F)nc4)nc3)c2c1` [Compound P-3018, [5-(5-Methyl-1H-pyrrolo[2,3-b]pyridin-3-ylmethyl)-pyrimidin-2-yl]-(6-trifluoromethyl-pyridin-3-yl)-amine], the results for the pIC50 at CYP2D6 and on TrkA kinase were less than 5.00 and greater than 6.00, respectively.
Regarding `COc1ccc(Nc2ccc(Cc3c[nH]c4ncc(C)cc34)c(F)n2)cn1` [Compound P-3019, [6-fluoro-5-(5-methyl-1H-pyrrolo[2,3-b]pyridin-3-ylmethyl)-pyridin-2-yl]-(6-methoxy-pyridin-3-yl)-amine], the pIC50 at CYP2D6 was less than 5.00; on TrkA kinase, greater than 7.00.
For `CCOc1ccc(Nc2ccc(Cc3c[nH]c4ncc(C)cc34)c(F)n2)cn1` [Compound P-3039, (6-ethoxy-pyridin-3-yl)-[6-fluoro-5-(5-methyl-1H-pyrrolo[2,3-b]pyridin-3-ylmethyl)-pyridin-2-yl]-amine], the figures for the negative-log IC50 (pIC50) at CYP2D6 and on TrkA kinase were less than 5.00 and greater than 7.00, respectively.
As to `COc1ccc(Nc2ccc(C(=O)c3c[nH]c4ncc(C)cc34)c(F)n2)cn1` [Compound P-3040, [2-Fluoro-6-(6-methoxy-pyridin-3-ylamino)-pyridin-3-yl]-(5-methyl-1H-pyrrolo[2,3-b]pyridin-3-yl)-methanone], the pIC50 on CYP2D6 was less than 5.00; at TrkA kinase, greater than 8.00.
As to `Cc1cnc2[nH]cc(Cc3ccc(Nc4ccc(C)nc4)nc3F)c2c1` [Compound P-3041, [6-Fluoro-5-(5-methyl-1H-pyrrolo[2,3-b]pyridin-3-ylmethyl)-pyridin-2-yl]-(6-methyl-pyridin-3-yl)-amine], the negative-log IC50 (pIC50) is less than 5.00 on CYP2D6 and greater than 6.00 at TrkA kinase.
The matching figures for `Cc1cnc2[nH]cc(C(=O)c3ccc(Nc4ccc(C)nc4)nc3F)c2c1` [Compound P-3043, [2-Fluoro-6-(6-methyl-pyridin-3-ylamino)-pyridin-3-yl]-(5-methyl-1H-pyrrolo[2,3-b]pyridin-3-yl)-methanone]: less than 5.00 and greater than 7.00.
`Cc1ccc(Nc2ccc(C(=O)c3c[nH]c4ncc(Cl)cc34)c(F)n2)cn1` [Compound P-3044, (5-Chloro-1H-pyrrolo[2,3-b]pyridin-3-yl)-[2-fluoro-6-(6-methyl-pyridin-3-ylamino)-pyridin-3-yl]-methanone]: the pIC50 on CYP2D6 was less than 5.00; at TrkA kinase it was greater than 7.00.
The matching figures for `CCc1ccc(Nc2ccc(Cc3c[nH]c4ncc(C)cc34)c(F)n2)cn1` [Compound P-3048, (6-Ethyl-pyridin-3-yl)-[6-fluoro-5-(5-methyl-1H-pyrrolo[2,3-b]pyridin-3-ylmethyl)-pyridin-2-yl]-amine]: less than 5.00 and greater than 8.00.
The matching figures for `CCc1ccc(Nc2ccc(C(=O)c3c[nH]c4ncc(C)cc34)c(F)n2)cn1` [Compound P-3049, [6-(6-Ethyl-pyridin-3-ylamino)-2-fluoro-pyridin-3-yl]-(5-methyl-1H-pyrrolo[2,3-b]pyridin-3-yl)-methanone]: less than 5.00 and greater than 8.00.
In the case of `Cc1cnc2[nH]cc(Cc3ccc(Nc4ccc(C5CC5)nc4)nc3F)c2c1` [Compound P-3050, (6-Cyclopropyl-pyridin-3-yl)-[6-fluoro-5-(5-methyl-1H-pyrrolo[2,3-b]pyridin-3-ylmethyl)-pyridin-2-yl]-amine], the pIC50 on CYP2D6 was less than 5.00; at TrkA kinase it was greater than 7.00.
Regarding `Cc1cnc2[nH]cc(C(=O)c3ccc(Nc4ccc(C5CC5)nc4)nc3F)c2c1` [Compound P-3051, [6-(6-Cyclopropyl-pyridin-3-ylamino)-2-fluoro-pyridin-3-yl]-(5-methyl-1H-pyrrolo[2,3-b]pyridin-3-yl)-methanone], the pIC50 on CYP2D6 is less than 5.00; at TrkA kinase, greater than 8.00.
`O=C(c1ccc(Nc2ccc(C3CC3)nc2)nc1F)c1c[nH]c2ncccc12` [Compound P-3052, [6-(6-Cyclopropyl-pyridin-3-ylamino)-2-fluoro-pyridin-3-yl]-(1H-pyrrolo[2,3-b]pyridin-3-yl)-methanone]: the negative logarithm of the IC50 (pIC50) is less than 5.00 at CYP2D6 and greater than 8.00 at TrkA kinase.
Regarding `Fc1nc(Nc2ccc(C3CC3)nc2)ccc1Cc1c[nH]c2ncccc12` [Compound P-3053, (6-Cyclopropyl-pyridin-3-yl)-[6-fluoro-5-(1H-pyrrolo[2,3-b]pyridin-3-ylmethyl)-pyridin-2-yl]-amine], the pIC50 on CYP2D6 is less than 5.00; on TrkA kinase, greater than 7.00.
The matching figures for `COc1ccc(Nc2ccc(Cc3c[nH]c4ncnc(OC)c34)c(F)n2)cn1` [Compound P-4001, [6-Fluoro-5-(4-methoxy-7H-pyrrolo[2,3-d]pyrimidin-5-ylmethyl)-pyridin-2-yl]-(6-methoxy-pyridin-3-yl)-amine]: less than 5.00 and greater than 7.00.
The matching figures for `COc1ccc(Nc2ccc(Cc3c[nH]c4ncnc(C)c34)c(F)n2)cn1` [Compound P-4002, [6-Fluoro-5-(4-methyl-7H-pyrrolo[2,3-d]pyrimidin-5-ylmethyl)-pyridin-2-yl]-(6-methoxy-pyridin-3-yl)-amine]: less than 5.00 and greater than 7.00.
For `COc1ncnc2[nH]cc(Cc3ccc(Nc4ccc(Cl)nc4)nc3F)c12` [Compound P-4003, (6-Chloro-pyridin-3-yl)-[6-fluoro-5-(4-methoxy-7H-pyrrolo[2,3-d]pyrimidin-5-ylmethyl)-pyridin-2-yl]-amine], the pIC50 is less than 5.00 on CYP2D6 and greater than 6.00 at TrkA kinase.
The matching figures for `COc1ncnc2[nH]cc(Cc3ccc(Nc4ccc(C5CC5)nc4)nc3F)c12` [Compound P-4004, (6-Cyclopropyl-pyridin-3-yl)-[6-fluoro-5-(4-methoxy-7H-pyrrolo[2,3-d]pyrimidin-5-ylmethyl)-pyridin-2-yl]-amine]: less than 5.00 and greater than 7.00.
The matching figures for `CCOc1ccc(Nc2ccc(Cc3c[nH]c4ncnc(OC)c34)c(F)n2)cn1` [Compound P-4005, (6-Ethoxy-pyridin-3-yl)-[6-fluoro-5-(4-methoxy-7H-pyrrolo[2,3-d]pyrimidin-5-ylmethyl)-pyridin-2-yl]-amine]: less than 5.00 and greater than 7.00.
Consider `CCOc1ccc(Nc2ccc(Cc3c[nH]c4ncnc(C)c34)c(F)n2)cn1` [Compound P-4006, (6-Ethoxy-pyridin-3-yl)-[6-fluoro-5-(4-methyl-7H-pyrrolo[2,3-d]pyrimidin-5-ylmethyl)-pyridin-2-yl]-amine], for which the pIC50 at CYP2D6 is less than 5.00; at TrkA kinase, greater than 7.00.
`CCc1ccc(Nc2ccc(Cc3c[nH]c4ncnc(OC)c34)c(F)n2)cn1` [Compound P-4007, (6-Ethyl-pyridin-3-yl)-[6-fluoro-5-(4-methoxy-7H-pyrrolo[2,3-d]pyrimidin-5-ylmethyl)-pyridin-2-yl]-amine]: the negative-log IC50 (pIC50) on CYP2D6 was less than 5.00; on TrkA kinase, greater than 8.00.
The matching figures for `CCOc1ccc(Nc2ccc(Cc3c[nH]c4ncnc(OCCOC)c34)c(F)n2)cn1` [Compound P-4008, (6-Ethoxy-pyridin-3-yl)-{6-fluoro-5-[4-(2-methoxy-ethoxy)-7H-pyrrolo[2,3-d]pyrimidin-5-ylmethyl]-pyridin-2-yl}-amine]: less than 5.00 and greater than 8.00.
In the case of `CCc1ccc(Nc2ccc(Cc3c[nH]c4ncnc(C)c34)c(F)n2)cn1` [Compound P-4009, (6-Ethyl-pyridin-3-yl)-[6-fluoro-5-(4-methyl-7H-pyrrolo[2,3-d]pyrimidin-5-ylmethyl)-pyridin-2-yl]-amine], the negative-log IC50 (pIC50) at CYP2D6 is less than 5.00; at TrkA kinase it was greater than 8.00.
As for `COc1ncnc2[nH]cc(Cc3ccc(Nc4ccc(C)nc4)nc3F)c12` [Compound P-4010, [6-Fluoro-5-(4-methoxy-7H-pyrrolo[2,3-d]pyrimidin-5-ylmethyl)-pyridin-2-yl]-(6-methyl-pyridin-3-yl)-amine], the negative-log IC50 (pIC50) is less than 5.00 at CYP2D6 and greater than 6.00 on TrkA kinase.
The matching figures for `CCn1cc(Nc2ccc(Cc3c[nH]c4ncnc(OC)c34)c(F)n2)cn1` [Compound P-4011, (1-Ethyl-1H-pyrazol-4-yl)-[6-fluoro-5-(4-methoxy-7H-pyrrolo[2,3-d]pyrimidin-5-ylmethyl)-pyridin-2-yl]-amine]: less than 5.00 and greater than 6.00.
The matching figures for `CCOc1ncnc2[nH]cc(Cc3ccc(Nc4cnn(CC)c4)nc3F)c12` [Compound P-4012, [5-(4-Ethoxy-7H-pyrrolo[2,3-d]pyrimidin-5-ylmethyl)-6-fluoro-pyridin-2-yl]-(1-ethyl-1H-pyrazol-4-yl)-amine]: less than 5.00 and greater than 7.00.
On to `CCn1cc(Nc2ccc(Cc3c[nH]c4ncnc(C)c34)c(F)n2)cn1` [Compound P-4013, (1-Ethyl-1H-pyrazol-4-yl)-[6-fluoro-5-(4-methyl-7H-pyrrolo[2,3-d]pyrimidin-5-ylmethyl)-pyridin-2-yl]-amine], for which the results for the negative logarithm of the IC50 (pIC50) on CYP2D6 and on TrkA kinase were less than 5.00 and greater than 6.00, respectively.
